According to patent US12018023B2 (NERVIANO MEDICAL SCIENCES S.R.L., priority 2018, dated 2024):

Assays:
[1] = biological target: T1, IDH1^R132H homodimer enzyme (Homo sapiens, UniProt O75874, R132H); test: NADPH depletion assay, IDH1 R132H; type: biochemical
T1 construct: purchased not specified
Procedure: (§1) IDH mutated enzyme activity converting alpha-ketoglutarate to 2-hydroxyglutaric acid is measured using a NADPH depletion assay. In the assay the remaining cofactor is measured at the end of the reaction with the addition of a catalytic excess of diaphorase and resazurin, to generate a fluorescent signal in proportion to the amount of NADPH remaining. IDH1 WT enzyme as well as mutated isoforms IDH1^R132H, IDH1^R132C, and IDH^2R172K enzymes are commercially available proteins (see e.g. Sino Biological, Abcam, Active Motif or Creative BioMart).
(§2) IDH1^R132H homodimer enzyme are diluted to 8 nM, in 10 μL of Assay Buffer (150 mM NaCl, 50 mM Tris-HCl pH 7.6, 10 mM MgCl2, 0.001% Triton X-100, 4 mM β-mercaptoethanol); 0.2 uL of test compound, previously serially diluted 1 to 3, >10 experimental points from 1 mM in DMSO, is added and the mixture is incubated for 15 minutes at room temperature. The reaction is started with the addition of 10 μL of Substrate Mix (12 uM NADPH, 3.4 mM alpha-ketoglutarate in Assay Buffer) and the mixture is incubated for 60 minutes at room temperature. The reaction is terminated with the addition of 5 μl of Detection Buffer (100 μg/mL diaphorase, 30 μM resazurin, in IX Assay Buffer), and is incubated for 15 minute before reading on a ViewLux as platereader at Ex544/Em590.

IDH1^R132C = biological target: T2, IDH1^R132C (Homo sapiens, UniProt O75874, R132C); test: NADPH depletion assay, IDH1 R132C; type: biochemical
T2 construct: purchased not specified
Procedure: as §1, §2
Compounds are assayed for their activity against IDH1^R132C following the same assay as above with the following modifications: IDH1^R132C and alpha-ketoglutarate final concentrations in the Assay Buffer is 2 nM and 0.14 mM, respectively.

T2 sequence (O75874 whole entry R132C): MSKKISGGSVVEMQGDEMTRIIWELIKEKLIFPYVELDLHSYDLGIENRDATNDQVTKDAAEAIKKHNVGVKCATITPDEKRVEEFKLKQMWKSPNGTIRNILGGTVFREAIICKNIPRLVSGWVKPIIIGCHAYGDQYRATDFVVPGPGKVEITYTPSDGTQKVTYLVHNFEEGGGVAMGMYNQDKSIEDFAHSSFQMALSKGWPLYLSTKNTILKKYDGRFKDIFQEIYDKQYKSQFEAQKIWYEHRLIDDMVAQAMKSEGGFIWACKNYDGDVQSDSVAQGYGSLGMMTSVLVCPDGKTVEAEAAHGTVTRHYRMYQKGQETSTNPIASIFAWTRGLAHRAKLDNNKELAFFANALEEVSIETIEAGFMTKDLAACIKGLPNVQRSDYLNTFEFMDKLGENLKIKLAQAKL
T1 sequence (O75874 whole entry R132H): as the sequence (O75874 whole entry R132C) above, with C132H counted along it

IC50 [1] [nM] | IC50 (IDH1^R132C) [nM] | SMILES
1830 | 622 | COC(=O)c1ccc([C@H](C)Nc2ncc3ccc(=O)n(Cc4ccccc4)c3n2)cc1 [cpd 1, Methyl 4-{(1S)-1-[(8-benzyl-7-oxo-pyrido[2,3-d]pyrimidin-2-yl)amino]ethyl}benzoate]
1130 | 450 | COC(=O)c1ccc([C@H](C)Nc2ncc3ccc(=O)n(CC(C)C)c3n2)cc1 [cpd 5, methyl 4-[(1S)-1-{[8-(2-methylpropyl)-7-oxo-pyrido[2,3-d]pyrimidin-2-yl]amino}ethyl]benzoate]
2960 | 1410 | COC(=O)c1ccc([C@H](C)Nc2ncc3ccc(=O)n(Cc4cc(F)cc(F)c4)c3n2)cc1 [cpd 7, methyl 4-[(1S)-1-{[8-(3,5-difluorobenzyl)-7-oxo-pyrido[2,3-d]pyrimidin-2-yl]amino}ethyl]benzoate]
2440 | 1380 | COC(=O)c1ccc([C@H](C)Nc2ncc3ccc(=O)n(Cc4ccc(F)cc4C(F)(F)F)c3n2)cc1 [cpd 8, methyl-4-[(1S)-1-({8-[4-fluoro-2-(trifluoromethyl)benzyl]-7-oxo-pyrido[2,3-d]pyrimidin-2-yl}amino)ethyl]benzoate]
1530 | 604 | COC(=O)c1ccc([C@H](C)Nc2ncc3ccc(=O)n(C(C)C)c3n2)cc1 [cpd 9, methyl 4-[(1S)-1-{[7-oxo-8-(propan-2-yl)-pyrido[2,3-d]pyrimidin-2-yl]amino}ethyl]benzoate]
3850 | 1920 | COC(=O)c1ccc([C@H](C)Nc2ncc3ccc(=O)n(CC4(C)COC4)c3n2)cc1 [cpd 10, methyl 4-[(1S)-1-({8-[(3-methyloxetan-3-yl)methyl]-7-oxo-pyrido[2,3-d]pyrimidin-2-yl}amino)ethyl]benzoate]
4910 | 1890 | C[C@H](Nc1ncc2ccc(=O)n(CCF)c2n1)c1ccc(Cl)cc1 [cpd 17, 2-{[(1S)-1-(4-chlorophenyl)ethyl]amino}-8-(2-fluoroethyl)pyrido[2,3-d]pyrimidin-7(8H)-one]
4070 | 1550 | C[C@H](Nc1ncc2ccc(=O)n(CC(F)(F)F)c2n1)c1ccc(Cl)cc1 [cpd 18, 2-{[(1S)-1-(4-chlorophenyl)ethyl]amino}-8-(2,2,2-trifluoroethyl)pyrido[2,3-d]pyrimidin-7(8H)-one]
2490 | 586 | COc1ccc(Cn2c(=O)ccc3cnc(N[C@@H](C)c4ccc(Cl)cc4)nc32)cc1 [cpd 21, 2-{[(1S)-1-(4-chlorophenyl)ethyl]amino}-8-(4-methoxybenzyl)pyrido[2,3-d]pyrimidin-7(8H)-one]
1940 | 524 | C[C@H](Nc1ncc2ccc(=O)n(Cc3ccc(F)cc3F)c2n1)c1ccc(Cl)cc1 [cpd 25, 2-{[(1S)-1-(4-chlorophenyl)ethyl]amino}-8-(2,4-difluorobenzyl)pyrido[2,3-d]pyrimidin-7(8H)-one]
3770 | 1150 | Cc1nc(N[C@@H](C)c2ccc(Cl)cc2)nc2c1ccc(=O)n2CC(C)C [cpd 32, 2-{[(1S)-1-(4-chlorophenyl)ethyl]amino}-4-methyl-8-(2-methylpropyl)pyrido[2,3-d]pyrimidin-7(8H)-one]
461 | 190 | COc1ccc([C@H](C)Nc2ncc3ccc(=O)n(CC(C)(C)C)c3n2)cc1 [cpd 33, 8-(2,2-dimethylpropyl)-2-{[(1S)-1-(4-methoxyphenyl)ethyl]amino}pyrido[2,3-d]pyrimidin-7(8H)-one]
160 | 71 | C[C@H](Nc1ncc2ccc(=O)n(CC(C)(C)C)c2n1)c1ccccc1 [cpd 40, 8-(2,2-dimethylpropyl)-2-{[(1S)-1-phenylethyl]amino}pyrido[2,3-d]pyrimidin-7(8H)-one]
2460 | 1410 | CC(C)(C)Cn1c(=O)ccc2cnc(NC(C)(C)c3ccccc3)nc21 [cpd 41, 8-(2,2-dimethylpropyl)-2-[(2-phenylpropan-2-yl)amino]pyrido[2,3-d]pyrimidin-7(8H)-one]
1380 | 951 | CC(C)(C)Cn1c(=O)ccc2cnc(NC3(c4ccccc4)CC3)nc21 [cpd 42, 8-(2,2-dimethylpropyl)-2-[(1-phenylcyclopropyl)amino]pyrido[2,3-d]pyrimidin-7(8H)-one]
1640 | 1050 | CC(C)(C)Cn1c(=O)ccc2cnc(NC3(c4ccccc4)CCC3)nc21 [cpd 43, 8-(2,2-dimethylpropyl)-2-[(1-phenylcyclobutyl)amino]pyrido[2,3-d]pyrimidin-7(8H)-one]
1090 | 811 | CC(Nc1ncc2ccc(=O)n(CC(C)(C)C)c2n1)C12CC3CC(CC(C3)C1)C2 (stereo not drawn) [cpd 44, 8-(2,2-dimethylpropyl)-2-{[1-(tricyclo[3.3.1.1^3,7]dec-1-yl)ethyl]amino}pyrido[2,3-d]pyrimidin-7(8H)-one]
554 | 206 | C[C@H](Nc1ncc2ccc(=O)n(CC3(C)COC3)c2n1)c1ccc2ccccc2c1 [cpd 45, 8-[(3-methyloxetan-3-yl)methyl]-2-{[(1S)-1-(naphthalen-2-yl)ethyl]amino}pyrido[2,3-d]pyrimidin-7(8H)-one]
1810 | 597 | C[C@H](Nc1ncc2cc(F)c(=O)n(CC(C)(C)C)c2n1)c1ccccc1 [cpd 47, 8-(2,2-Dimethyl-propyl)-6-fluoro-2-((S)-1-phenyl-ethylamino)-8H-pyrido[2,3-d]pyrimidin-7-one]
1760 | 786 | C[C@H](Nc1ncc2ccc(=O)n(CC(C)(C)C)c2n1)c1nc(-c2ccc(Cl)cc2)no1 [cpd 52, 2-({(1S)-1-[3-(4-chlorophenyl)-1,2,4-oxadiazol-5-yl]ethyl}amino)-8-(2,2-dimethylpropyl)pyrido[2,3-d]pyrimidin-7(8H)-one]
941 | 529 | C[C@H](Nc1ncc2ccc(=O)n(Cc3ccccc3)c2n1)c1nc(-c2ccc(Cl)cc2)no1 [cpd 53, 8-benzyl-2-({(1S)-1-[3-(4-chlorophenyl)-1,2,4-oxadiazol-5-yl]ethyl}amino)pyrido[2,3-d]pyrimidin-7(8H)-one]
– | 3540 | CC(C)[C@H](C)n1c(=O)ccc2cnc(N[C@@H](C)c3ccc(N4CCNCC4)nc3)nc21 [cpd 180, 8-[(2S)-3-methylbutan-2-yl]-2-({(1S)-1-[6-(piperazin-1-yl)pyridin-3-yl]ethyl}amino)pyrido[2,3-d]pyrimidin-7(8H)-one]
– | 624 | C=CC(=O)N1CCN(Cc2ccc([C@H](C)Nc3ncc4ccc(=O)n(CC)c4n3)cc2)[C@H](C)C1 [cpd 207, 2-{[(1S)-1-(4-{[(2R)-4-acryloyl-2-methylpiperazin-1-yl]methyl}phenyl)ethyl]amino}-8-ethylpyrido[2,3-d]pyrimidin-7(8H)-one]
– | 213 | C=CC(=O)N1CCN(Cc2ccc([C@H](C)Nc3ncc4ccc(=O)n(CC)c4n3)cc2)C[C@H]1C [cpd 208, 2-{[(1S)-1-(4-{[(3R)-4-acryloyl-3-methylpiperazin-1-yl]methyl}phenyl)ethyl]amino}-8-ethylpyrido[2,3-d]pyrimidin-7(8H)-one]
– | 183 | C=CC(=O)N1CCN(Cc2ccc([C@H](C)Nc3ncc4ccc(=O)n(CC)c4n3)cc2)[C@@H](C)C1 [cpd 210, 2-{[(1S)-1-(4-{[(2S)-4-acryloyl-2-methylpiperazin-1-yl]methyl}phenyl)ethyl]amino}-8-ethylpyrido[2,3-d]pyrimidin-7(8H)-one]
– | 525 | C=CC(=O)N1CCN(Cc2ccc([C@H](C)Nc3ncc4ccc(=O)n(CC)c4n3)cc2)C[C@@H]1C [cpd 211, 2-{[(1S)-1-(4-{[(3S)-4-acryloyl-3-methylpiperazin-1-yl]methyl}phenyl)ethyl]amino}-8-ethylpyrido[2,3-d]pyrimidin-7(8H)-one]
– | 1670 | C=CC(=O)N1CC[C@@H](Oc2ccc([C@H](C)Nc3ncc4ccc(=O)n(CC)c4n3)cc2)C1 [cpd 223, 2-{[(1S)-1-(4-{[(3R)-1-acryloylpyrrolidin-3-yl]oxy}phenyl)ethyl]amino}-8-ethylpyrido[2,3-d]pyrimidin-7(8H)-one]
– | 330 | CCn1c(=O)ccc2cnc(N[C@@H](C)c3ccc(CN4CCN(C(=O)OC(C)(C)C)CC4)cc3)cc21 [cpd 232, 4-{4-[(S)-1-(1-Ethyl-2-oxo-1,2-dihydro-[1,6]naphthyridin-7-ylamino)-ethyl]-benzyl}-piperazine-1-carboxylic acid tert-butyl ester]
– | 105 | C=CC(=O)N1CCN(Cc2ccc([C@H](C)Nc3cc4c(ccc(=O)n4CC)cn3)cc2)CC1 [cpd 236, 7-{(S)-1-[4-(4-Acryloyl-piperazin-1-ylmethyl)-phenyl]-ethylamino}-1-ethyl-1H-[1,6]naphthyridin-2-one]
– | 68 | CCC(=O)N1CCN(C(CC)c2ccc([C@H](C)Nc3ncc4ccc(=O)n(C(C)C)c4n3)cc2)CC1 (stereo partly drawn) [cpd 240, 2-{[(1S)-1-{4-[1-(4-propanoylpiperazin-1-yl)propyl]phenyl}ethyl]amino}-8-(propan-2-yl)pyrido[2,3-d]pyrimidin-7(8H)-one]
